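Here, GI50 denotes the concentration required for 50% inhibition of growth. TGI denotes the concentration required for complete inhibition of growth.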
Legend:
Test in all cases: DTP human tumour cell line panel, 384-well format
BT-549 breast = system: BT-549 breast
HL-60(TB) leukemia = system: HL-60(TB) leukemia
HS 578T breast = system: HS 578T breast
IGROV1 ovarian = system: IGROV1 ovarian
K-562 leukemia = system: K-562 leukemia
MDA-MB-435 melanoma = system: MDA-MB-435 melanoma
MDA-MB-468 breast = system: MDA-MB-468 breast
NCI-H23 lung = system: NCI-H23 lung
PC-3 prostate = system: PC-3 prostate
RPMI-8226 leukemia = system: RPMI-8226 leukemia
SF-295 CNS = system: SF-295 CNS
U251 glioblastoma = system: U251 glioblastoma
UACC-257 melanoma = system: UACC-257 melanoma

`CNC(=O)c1ccc(-c2cnc3ncc(Cc4ccc5ncccc5c4)n3n2)cc1F` gave a GI50 (BT-549 breast) of over 100 µM, a TGI (BT-549 breast) of over 100 µM and a GI50 (HL-60(TB) leukemia) of over 100 µM. The TGI (HL-60(TB) leukemia) was over 100 µM, the GI50 (HS 578T breast) was over 100 µM and the TGI (HS 578T breast) was over 100 µM. It also gave a GI50 (IGROV1 ovarian) of over 100 µM, a TGI (IGROV1 ovarian) of over 100 µM and a GI50 (K-562 leukemia) of over 100 µM. For the same molecule, the TGI (K-562 leukemia) was over 100 µM, the GI50 (MDA-MB-435 melanoma) was over 100 µM and the TGI (MDA-MB-435 melanoma) was over 100 µM. For the same molecule, the GI50 (MDA-MB-468 breast) was over 100 µM, the TGI (MDA-MB-468 breast) was over 100 µM and the GI50 (NCI-H23 lung) was over 100 µM. It also gave a TGI (NCI-H23 lung) of over 100 µM, a GI50 (PC-3 prostate) of over 100 µM and a TGI (PC-3 prostate) of over 100 µM. The GI50 (RPMI-8226 leukemia) was over 100 µM, the TGI (RPMI-8226 leukemia) was over 100 µM and the GI50 (SF-295 CNS) was over 72.6 µM. It also gave a TGI (SF-295 CNS) of over 100 µM, a GI50 (U251 glioblastoma) of over 100 µM and a TGI (U251 glioblastoma) of over 100 µM. For the same molecule, the GI50 (UACC-257 melanoma) was over 100 µM and the TGI (UACC-257 melanoma) was over 100 µM.
